Results taken from patent US20230329994A1, “Surfactant Containing Formulation of Pseudo-Ceramides” (Symrise AG, priority 2020, published 2023).

How the values were obtained:
[1] = Solubility: visual appearance of shampoo formulations; type: physicochemical; conditions: 0.1 in shampoo, surfactant approx. 14%; after preparation, after 3 days at 5° C. and 3 days at room temperature
Protocol: The solubility of the pseudoceramide CeramideBio in shampoo is evaluated in comparison to Ceramide 2 and Ceramide 3.
Shampoo Formulations: • Surfactant content: Approx. 14% 01
The shampoo formulations were prepared as follows: Phase A components were blended by gentle stirring; the process was stopped, when foaming starts.
The ceramides/pseudoceramide were predispersed in polyglyceryl-4-caprate and heated up to 90° C. The ceramides/pseudoceramide were melted and finely dispersed. Ucare Polymer JR-400 and water were added and the mixture was heated up to 90° C. again and stirred for 10 minutes.
Phases B, C and D were added to phase A one after the other by stirring. After that, the mixture was stirred slowly with a vane stirrer until the solution was homogeneous. At last Phase E was added by stirring with a vane stirrer. The pH value was adjusted to about 5.4 to 5.8.
The visual appearance of the shampoo formulations was evaluated after preparation, after 3 days storage at 5° C. and 3 day at room temperature.
The visual appearance of the shampoo formulations is depicted in FIG. 1. From left to the right: Sample CeramideBio (01_B), Ceramide 2 (02_B), Ceramide 3 (03_B).

[2] = Hair shine/luster evaluation (SAMBA system)
Protocol: The hair luster was measured with a shampoo formulation according to the present invention containing pseudoceramide CeramideBio (shampoo, 1.0%), a shampoo formulation containing Ceramide 2 (shampoo, 1%) and a Placebo (shampoo).
Principle: Hair luster test analyzes the light reflection from the hair surface and other interactions of the incident light with the hair. The measurement is made by using SAMBA system. The results are expressed by luster: parameter calculated from values of shine, chroma and diffused light to express the observer perception of the gloss effect. The higher is the value, the best impression of the observer regarding gloss effect of the hair. […]

[3] = Swelling test / hydrophobicity of hair fibers; conditions: for diameter variation of the hair after 180 s: 1× bleached tresses
Protocol: The swelling of the hair was measured with a conditioning formulation according to the present invention containing pseudoceramide CeramideBio (leave-on, 0.5 and 0.05%), a conditioning formulation containing Ceramide 2 (leave-on, 0.5% and 0.05%) and a Placebo (leave-on).
Principle: Through diameter measurements it is possible to determine the level of swelling of a hair fiber over time when in contact with water. The swelling test evaluates the action of materials in forming a hydrophobic film on hair surface in order to prevent humidity from penetrating the hair, which in turn provokes the hair diameter variation. The laser measures the variation in the fiber diameter as it absorbs water over a pre-determined time. According to the fiber condition or the film covering its surface, the level of swelling may change. The more damaged the hair, the more hydrophilic it is, since most of the hair damages take the lipids, ceramides and other hydrophobic substances away from the hair, and, consequently, more swelling is noticed. Parameter measured: variation in hair diameter (%).
Swelling Test: • 3 Caucasian hair tresses (2.5 g, 25 cm, 1× bleached) were cleaned with a sodium laureth sulfate solution (SLES) (10%) for 1 minute; • Test samples (see above) were applied to each tress (0.25 ml of sample; massaging for 1 minute); • Tresses were left for drying at controlled environment (22±2° C.; 50±5% RH) overnight; • 45 fibers from each treatment were collected randomly and fixed in plastic tabs one by one; • Swelling test was performed during 180 s; • Variation on fiber's diameter was calculated; • Comparisons among treatments were performed using one-way variance analysis (ANOVA), followed by Tukey's honestly significant difference (HSD) test, at a 95% confidence interval.

| SMILES | recrystallization in shampoo formulation (visual appearance) [1] | effect on hair luster ([2]; shampoo formulation containing 1.0%) | luster of the hair compared to shampoo formulation with Ceramide 2 ([2]; shampoo, 1.0%, applied 5 times, 3× bleached tresses) | diameter variation of the hair after 180 s compared to conditioning formulation with Ceramide 2 ([3]; leave-on conditioning formulation) | diameter variation of the hair after 180 s ([3]; leave-on conditioning formulation, higher concentration (0.5%)) [%] | diameter variation of the hair after 180 s ([3]; leave-on conditioning formulation, lower concentration (0.05%)) [%] | hair fiber swelling / hydrophobicity versus non-treated hair, placebo and leave-on with 0.05% Ceramide 2 ([3]; leave-on formulation containing 0.05%) |
| --- | --- | --- | --- | --- | --- | --- | --- |
| CCCCCCCCCCCCCCCCCC(=O)N[C@@H](CO)[C@H](O)CCCCCCCCCCCCCCC [Ceramide 2] | showed recrystallization |  |  |  |  |  |  |
| CCCCCCCCCCCCCCCCCCCCCCCC(=O)N[C@@H](CO)[C@H](O)C(O)CCCCCCCCCCCCCC (stereo partly drawn) [Ceramide 3] | showed recrystallization |  |  |  |  |  |  |
| CCCCCCCCCCCCCCCCOC(=O)[C@@H]1C[C@@H](O)CN1C(=O)CCCCCCCCCCCCCCC [CeramideBio, Cetylhydroxyproline palmitamide] | without recrystallization | able to increase hair luster | higher | smaller | 15.90 | 14.44 | statistically decreasing its swelling |
